Experiments:
[1] = tested on: Trypanosoma cruzi; test: microbe, parasite or virus in culture; type: functional, organism-based, Tulahuen LacZ, Clone C4; settings: Trypanosoma cruzi, Tulahuen LacZ, Clone C4
[2] = DNDI: Cytotoxicity against L-6 rat myoblasts from skeletal muscle cells; settings: L6 rat skeletal muscle myoblast cells, IC50
[3] = tested on: Trypanosoma cruzi; test: microbe, parasite or virus in culture; type: functional, Tulahuen LacZ, Clone C4; settings: Trypanosoma cruzi, Tulahuen LacZ, Clone C4

Row | Compound | IC50 [1] [nM] | IC90 [3] [nM] | IC50 [2] [nM]
1 | O=S(=O)(Cc1ccccc1)N1CCN(C(c2ccc(Cl)cc2)c2cccnc2)CC1 (configuration not stated) | 32 | 140 | 57700
2 | CN(C)C(=O)N1CCC(NC(c2cnccn2)c2ccc(F)cc2F)CC1 (configuration not stated) | > 1000 | > 1000 | > 100000
3 | O=C(c1ccc(C(F)(F)F)cc1)N1CCN(C(c2ccc(Cl)cc2)c2cncnc2)CC1 (configuration not stated) | 150 | 320 | 54100
4 | O=C(Cc1ccccc1)N1CCC(NC(c2cnccn2)c2ccc(F)cc2F)CC1 (configuration not stated) | 360 | 820 | > 100000
5 | CC(C)CC(=O)N1CCN(C(c2ccc(Cl)cc2)c2cncnc2)CC1 (configuration not stated) | 430 | 910 | > 100000
6 | CCC(=O)N1CCC(NC(c2ccc(C(F)(F)F)cc2)c2cnccn2)CC1 (configuration not stated) | > 1000 | > 1000 | > 100000
7 | CN(C)C(=O)N1CCC(NC(c2ccc(C(F)(F)F)cc2)c2cnccn2)CC1 (configuration not stated) | 500 | 920 | > 100000
8 | O=C(NCCN1CCOCC1)c1cccc(C(O)(c2ccc(Cl)cc2)c2cccnc2)c1 (configuration not stated) | 500 | 950 | > 100000
9 | O=C(NC1CCN(C(c2ccc(C(F)(F)F)cc2)c2cnccn2)CC1)c1ccc(Cl)cc1 (configuration not stated) | 78 | 230 | 52900
10 | CC(C)CC(=O)N1CCC(NC(c2cnccn2)c2ccc(F)cc2F)CC1 (configuration not stated) | 550 | > 1000 | > 100000
11 | CC(C)c1ccc(NC(=O)N2CCN(C(c3ccc(Cl)cc3)c3cncnc3)CC2)cc1 (configuration not stated) | 11 | 36 | 36000
12 | CCC(=O)N1CCN(C(c2cncnc2)c2ccc(Cl)cc2F)CC1 (configuration not stated) | 440 | 860 | > 100000
13 | O=S(=O)(c1ccc(C(F)(F)F)cc1)N1CCN(C(c2cncnc2)c2ccc(Cl)cc2F)CC1 (configuration not stated) | 76 | 220 | 74700
14 | O=C(Nc1ccccc1)N1CCN(C(c2ccc(Cl)cc2)c2cncnc2)CC1 (configuration not stated) | 120 | 310 | 83700
15 | O=S(=O)(NC1CCN(C(c2ccc(C(F)(F)F)cc2)c2cnccn2)CC1)C1CCCCC1 (configuration not stated) | 280 | 780 | 57900
16 | O=S(=O)(Cc1ccccc1)N1CCC(NC(c2cnccn2)c2ccc(F)cc2F)CC1 (configuration not stated) | 190 | 400 | > 100000
17 | O=C(c1ccccc1)N1CCC(NC(c2cnccn2)c2ccc(F)cc2F)CC1 (configuration not stated) | 680 | > 1000 | > 100000
18 | O=C(C1CCCCC1)N1CCC(NC(c2cnccn2)c2ccc(F)cc2F)CC1 (configuration not stated) | 570 | 990 | > 100000
19 | O=C(c1ccc(Cl)cc1)N1CCC(NC(c2cnccn2)c2ccc(F)cc2F)CC1 (configuration not stated) | 260 | 700 | > 100000
20 | CC(C)CC(=O)NC1CCN(C(c2ccc(C(F)(F)F)cc2)c2cnccn2)CC1 (configuration not stated) | 280 | 700 | > 100000
21 | CC(C)c1ccc(S(=O)(=O)N2CCC(NC(c3ccc(C(F)(F)F)cc3)c3cnccn3)CC2)cc1 (configuration not stated) | 100 | 270 | 22000
22 | CC(C)C(=O)NC1CCN(C(c2ccc(C(F)(F)F)cc2)c2cnccn2)CC1 (configuration not stated) | 560 | 940 | > 100000
23 | CC(C)S(=O)(=O)N1CCN(C(c2cncnc2)c2ccc(Cl)cc2F)CC1 (configuration not stated) | 120 | 330 | > 100000

Now from value to compound, other results behind:

Row | IC50 [1] [nM] | IC90 [3] [nM] | Compound | IC50 [2] [nM]
24 | 230 | 490 | CC(C)C(=O)N1CCC(NC(c2ccc(C(F)(F)F)cc2)c2cnccn2)CC1 (configuration not stated) | > 100000
25 | 560 | 940 | CC(C)S(=O)(=O)NC1CCN(C(c2ccc(C(F)(F)F)cc2)c2cnccn2)CC1 (configuration not stated) | > 100000
26 | 150 | 300 | O=C(C1CCCCC1)N1CCN(C(c2cncnc2)c2ccc(Cl)cc2F)CC1 (configuration not stated) | > 100000
27 | 62 | 200 | CC(C)CS(=O)(=O)N1CCN(C(c2ccc(Cl)cc2)c2cncnc2)CC1 (configuration not stated) | 92700
28 | 400 | 880 | O=S(=O)(c1ccccc1)N1CCC(NC(c2cnccn2)c2ccc(F)cc2F)CC1 (configuration not stated) | 72200
29 | > 1000 | > 1000 | CCC(=O)N1CCC(NC(c2cnccn2)c2ccc(F)cc2F)CC1 (configuration not stated) | > 100000
30 | 34 | 120 | O=C(c1cccc(C(O)(c2ccc(Cl)cc2)c2cccnc2)c1)N1CCOCC1 (configuration not stated) | > 100000
31 | 24 | 78 | CC(C)c1ccc(S(=O)(=O)N2CCN(C(c3ccc(Cl)cc3)c3cncnc3)CC2)cc1 (configuration not stated) | 46100
32 | 190 | 370 | O=C(Cc1ccccc1)NC1CCN(C(c2ccc(C(F)(F)F)cc2)c2cnccn2)CC1 (configuration not stated) | > 100000
33 | 500 | 950 | O=C(c1ccccc1)N1CCN(C(c2ccc(Cl)cc2)c2cncnc2)CC1 (configuration not stated) | 75500
34 | 220 | 570 | CC(C)S(=O)(=O)N1CCC(NC(c2ccc(C(F)(F)F)cc2)c2cnccn2)CC1 (configuration not stated) | > 100000
